Usually pEC50 stands for the negative decadic logarithm of the EC50, by convention in mol/L.

Among the data in patent publication US9932309B2, “2-oxo-3,4-dihydropyridine-5-carboxylates and their use” (UNIVERSITE DE LILLE 2 DROIT ET SANTE, priority 2014, dated 2018) are EC50, hTGR5 % trans and mTGR5 % trans values, retold here.

pEC50: −log10 of the molar value. Counter-ions that a name gives are not always drawn.

In one experiment the target is T1, hTGR5 (Homo sapiens, UniProt Q8TDU6).
T1 construct: expressed in transfected cells; host or cells: HEK293 cells, transiently co-transfected with the pCRE TA-Luciferase reporter
T1 sequence (Q8TDU6 1-330): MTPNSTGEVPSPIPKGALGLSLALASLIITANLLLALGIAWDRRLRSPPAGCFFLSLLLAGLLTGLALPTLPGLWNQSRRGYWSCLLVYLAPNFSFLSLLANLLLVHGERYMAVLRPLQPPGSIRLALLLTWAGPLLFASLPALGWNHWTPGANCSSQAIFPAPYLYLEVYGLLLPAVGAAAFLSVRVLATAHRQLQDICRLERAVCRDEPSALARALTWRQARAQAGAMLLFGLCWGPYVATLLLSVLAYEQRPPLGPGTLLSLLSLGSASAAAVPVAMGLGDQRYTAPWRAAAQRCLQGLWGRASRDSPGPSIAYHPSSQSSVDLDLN
Description: TGR5/CRE Luciferase Assay (hTGR5). The conditions noted are these: for pEC50: HEK 293 cells co-transfected with pCMV tag4b-TGR5h and pCRE TA-Luciferase, overnight incubation; for hTGR5 % trans: percentage of the 10 μM LCA value, HEK 293 cells transfected with hTGR5. Type of experiment: cell-based. The method in brief: (§1)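 cAMP-dependent luciferase luminescence was measured after overnight compound exposure (duplicate concentration series) and fitted to a four-parameter logistic equation. Cells: HEK293 transiently co-expressing hTGR5 or mTGR5 with a CRE reporter; lithocholic acid at 10 μM was the reference agonist.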

A further experiment addresses T2, mTGR5 (Mus musculus, UniProt Q80SS6).
T2 construct: expressed in transfected cells; host or cells: HEK293 cells, transiently co-transfected with the pCRE TA-Luciferase reporter
T2 sequence (Q80SS6 1-329): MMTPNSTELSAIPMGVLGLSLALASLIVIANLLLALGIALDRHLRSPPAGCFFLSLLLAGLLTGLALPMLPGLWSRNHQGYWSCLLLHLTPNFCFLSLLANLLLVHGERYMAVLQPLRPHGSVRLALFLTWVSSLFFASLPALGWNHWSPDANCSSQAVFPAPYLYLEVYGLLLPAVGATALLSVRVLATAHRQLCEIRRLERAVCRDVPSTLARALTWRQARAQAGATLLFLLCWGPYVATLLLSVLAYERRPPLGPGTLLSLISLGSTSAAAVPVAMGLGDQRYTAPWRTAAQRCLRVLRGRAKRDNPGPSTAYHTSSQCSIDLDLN
The experiment in a line: TGR5/CRE Luciferase Assay (mTGR5). Type of experiment: cell-based. The conditions noted are these: for pEC50: HEK 293 cells co-transfected with pCMV AC6-TGR5m and pCRE TA-Luciferase, overnight incubation; for mTGR5 % trans: percentage of the 10 μM LCA value, HEK 293 cells transfected with mTGR5. The method in brief: as §1

Take `C=CCN1C(=O)CC(c2ccc(Cl)cc2)C(C(=O)OCc2ccccc2)=C1C` (centres unmarked) [Compound 38, Benzyl 1-allyl-4-(4-chlorophenyl)-6-methyl-2-oxo-3,4-dihydropyridine-5-carboxylate]: at hTGR5, the pEC50 is 5.96 and the hTGR5 % trans came to 75%. At mTGR5, this compound showed a pEC50 of 5.82 and a mTGR5 % trans of 54%.

As to `C=C(C)CN1C(=O)CC(c2ccc(Cl)cc2)C(C(=O)OCc2ccccc2)=C1C` (centres unmarked) [Compound 39, Benzyl 4-(4-chlorophenyl)-6-methyl-1-(2-methylallyl)-2-oxo-3,4-dihydropyridine-5-carboxylate], at hTGR5, the negative logarithm of the EC50 (pEC50) was 5.89 and the hTGR5 % trans is on record as 82%. At mTGR5, this compound showed a pEC50 of 5.85 and a mTGR5 % trans of 73%.

At hTGR5, `C#CCN1C(=O)CC(c2ccc(Cl)cc2)C(C(=O)OCc2ccccc2)=C1C` (centres unmarked) [Compound 40, Benzyl 4-(4-chlorophenyl)-6-methyl-2-oxo-1-prop-2-ynyl-3,4-dihydropyridine-5-carboxylate] had a negative logarithm of the EC50 (pEC50) of 6.05 and a hTGR5 % trans of 81%. At mTGR5, this compound gave a pEC50 of 6.05 and a mTGR5 % trans of 76%.

With `CC1=C(C(=O)OCc2ccccc2)C(c2ccc(Cl)cc2)CC(=O)N1Cc1ccccc1` (centres unmarked) [Compound 41, Benzyl 1-benzyl-4-(4-chlorophenyl)-6-methyl-2-oxo-3,4-dihydropyridine-5-carboxylate], on hTGR5, the pEC50 is 5.89 and the hTGR5 % trans is reported as 55%. For the same compound, on mTGR5, the pEC50 was 5.92 and the mTGR5 % trans was found to be 55%.

In the case of `CC1=C(C(=O)OCc2ccccc2)C(c2ccc(Cl)cc2)CC(=O)N1CC1CCC1` (centres unmarked) [Compound 44, Benzyl 4-(4-chlorophenyl)-1-(cyclobutylmethyl)-6-methyl-2-oxo-3,4-dihydropyridine-5-carboxylate], on hTGR5, the pEC50 was 6.52 and the hTGR5 % trans was 59%. On mTGR5, this compound gave a pEC50 of 6.40 and a mTGR5 % trans of 77%.

In the case of `CC1=C(C(=O)OCc2ccccc2)C(c2ccc(Cl)cc2)CC(=O)N1CC1CN(C)C1` (centres unmarked) [Compound 47, Benzyl 4-(4-chlorophenyl)-6-methyl-1-[(1-methylazetidin-3-yl)methyl]-2-oxo-3,4-dihydropyridine-5-carboxylate], on hTGR5, the pEC50 is 5.18 and the hTGR5 % trans turned out to be 22%. The mTGR5 % trans at mTGR5 came out at 0%.

On hTGR5, `CC1=C(C(=O)OCc2ccccc2)C(c2ccc(Cl)cc2)CC(=O)N1CC1C[N+](C)(C)C1.[I-]` (centres unmarked) [Compound 48, Benzyl 4-(4-chlorophenyl)-1-[(1,1-dimethylazetidin-1-ium-3-yl)methyl]-6-methyl-2-oxo-3,4-dihydropyridine-5-carboxylate iodide] showed a pEC50 of 4.92 and a hTGR5 % trans of 13%. Besides, the mTGR5 % trans at mTGR5 amounted to 0%.

For `CC1=C(C(=O)OCc2ccccc2)C(c2ccc(Cl)cc2)CC(=O)N1CCNC(=O)OC(C)(C)C` (centres unmarked) [Compound 52, Benzyl 1-[2-(tert-butoxycarbonylamino)ethyl]-4-(4-chlorophenyl)-6-methyl-2-oxo-3,4-dihydropyridine-5-carboxylate], at hTGR5, the pEC50 was 5.60 and the hTGR5 % trans is reported as 18%. This compound had a mTGR5 % trans on mTGR5 of 0%.

Turning to `CC1=C(C(=O)OCc2ccccc2)C(c2ccc(Cl)cc2)CC(=O)N1CCN` (centres unmarked) [Compound 53, Hydrochloride salt of benzyl 1-(2-aminoethyl)-4-(4-chlorophenyl)-6-methyl-2-oxo-3,4-dihydropyridine-5-carboxylate], on hTGR5, the pEC50 was 5.37 and the hTGR5 % trans is on record as 16%. In addition, on mTGR5, the mTGR5 % trans is 0%.

On hTGR5, `CC1=C(C(=O)OCc2ccccc2)C(c2ccc(Cl)cc2)CC(=O)N1CCCN(C)C` (centres unmarked) [Compound 54, Benzyl 4-(4-chlorophenyl)-1-[3-(dimethylamino)propyl]-6-methyl-2-oxo-3,4-dihydropyridine-5-carboxylate] showed a pEC50 of 5.38 and a hTGR5 % trans of 10%. Further, the mTGR5 % trans on mTGR5 was 0%.

On hTGR5, `CC1=C(C(=O)OCc2ccccc2)C(c2ccc(Cl)cc2)CC(=O)N1CCN1CCCC1` (centres unmarked) [Compound 55, Benzyl 4-(4-chlorophenyl)-6-methyl-2-oxo-1-(2-pyrrolidin-1-ylethyl)-3,4-dihydropyridine-5-carboxylate] showed a pEC50 of 5.35 and a hTGR5 % trans of 47%. Further, the mTGR5 % trans on mTGR5 is 5%.

Regarding `CC1=C(C(=O)OCc2ccccc2)C(c2ccc(Cl)cc2)CC(=O)N1CCN1CCCCC1` (centres unmarked) [Compound 56, Benzyl 4-(4-chlorophenyl)-6-methyl-2-oxo-1-[2-(1-piperidyl)ethyl]-3,4-dihydropyridine-5-carboxylate], on hTGR5, the pEC50 was 5.44 and the hTGR5 % trans is reported as 50%. Besides, the mTGR5 % trans on mTGR5 was 3%.

At hTGR5, `CC1=C(C(=O)OCc2ccccc2)C(c2ccc(Cl)cc2)CC(=O)N1CC(=O)OC(C)(C)C` (centres unmarked) [Compound 58, Benzyl 1-(2-tert-butoxy-2-oxo-ethyl)-4-(4-chlorophenyl)-6-methyl-2-oxo-3,4-dihydropyridine-5-carboxylate] showed a pEC50 of 5.87 and a hTGR5 % trans of 50%. In addition, at mTGR5, the negative logarithm of the EC50 (pEC50) was 6.38 and the mTGR5 % trans amounted to 70%.

On to `CC1=C(C(=O)OCc2ccccc2)C(c2ccc(Cl)cc2)CC(=O)N1Cc1nc(C)no1` (centres unmarked) [Compound 59, Benzyl 4-(4-chlorophenyl)-6-methyl-1-[(3-methyl-1,2,4-oxadiazol-5-yl)methyl]-2-oxo-3,4-dihydropyridine-5-carboxylate], for which, on hTGR5, the pEC50 was 5.96 and the hTGR5 % trans is recorded as 21%. At mTGR5, this compound had a pEC50 of 4.91 and a mTGR5 % trans of 18%.

Take `CC1=C(C(=O)OCc2ccccc2)C(c2ccc(Cl)cc2)CC(=O)N1CC(N)=O` (centres unmarked) [Compound 60, Benzyl 1-(2-amino-2-oxo-ethyl)-4-(4-chlorophenyl)-6-methyl-2-oxo-3,4-dihydropyridine-5-carboxylate]: at hTGR5, the pEC50 is 4.87 and the hTGR5 % trans came out at 42%. Besides, on mTGR5, the pEC50 is 4.84 and the mTGR5 % trans is 32%.

On hTGR5, `CC1=C(C(=O)OCc2ccccc2)C(c2ccc(Cl)cc2)CC(=O)N1CCS(C)(=O)=O` (centres unmarked) [Compound 62, Benzyl 4-(4-chlorophenyl)-6-methyl-1-(2-methylsulfonylethyl)-2-oxo-3,4-dihydropyridine-5-carboxylate] had a pEC50 of 5.64 and a hTGR5 % trans of 69%. On mTGR5, this compound gave a pEC50 of 5.23 and a mTGR5 % trans of 42%.

On to `CC1=C(C(=O)OCc2ccccc2)C(c2ccc(Cl)cc2)CC(=O)N1CC#N` (centres unmarked) [Compound 63, Benzyl 4-(4-chlorophenyl)-1-(cyanomethyl)-6-methyl-2-oxo-3,4-dihydropyridine-5-carboxylate], for which, on hTGR5, the negative-log EC50 (pEC50) is 5.66 and the hTGR5 % trans was found to be 50%. At mTGR5, this compound gave a pEC50 of 5.70 and a mTGR5 % trans of 57%.

For `COc1ccccc1COC(=O)C1=C(C)N(Cc2ccco2)C(=O)CC1c1ccc(Cl)cc1` (centres unmarked) [Compound 66], on hTGR5, the pEC50 was 6.70 and the hTGR5 % trans is 62%. Further, at mTGR5, the pEC50 was 7.00 and the mTGR5 % trans is on record as 78%.

On hTGR5, `CCOC(=O)CN1C(=O)CC(c2ccc(Cl)cc2)C(C(=O)OCc2ccccc2OC)=C1C` (centres unmarked) [Compound 69, (2-methoxyphenyl)methyl 4-(4-chlorophenyl)-1-(2-ethoxy-2-oxo-ethyl)-6-methyl-2-oxo-3,4-dihydropyridine-5-carboxylate] had a pEC50 of 6.52 and a hTGR5 % trans of 105%. Also, on mTGR5, the pEC50 is 6.40 and the mTGR5 % trans is 104%.

For `COc1ccccc1COC(=O)C1=C(C)N(CC2CC2)C(=O)CC1c1ccc(Cl)cc1` (centres unmarked) [Compound 70, o-methoxybenzyl 4-(4-chlorophenyl)-1-(cyclopropylmethyl)-6-methyl-2-oxo-3,4-dihydropyridine-5-carboxylate], on hTGR5, the pEC50 was 7.15 and the hTGR5 % trans was determined as 65%. On mTGR5, this compound showed a pEC50 of 7.10 and a mTGR5 % trans of 102%.

On hTGR5, `COCCCN1C(=O)CC(c2ccc(Cl)cc2)C(C(=O)OCc2ccccc2OC)=C1C` (centres unmarked) [Compound 71, (2-methoxyphenyl)methyl 4-(4-chlorophenyl)-1-(3-methoxypropyl)-6-methyl-2-oxo-3,4-dihydropyridine-5-carboxylate] gave a pEC50 of 6.70 and a hTGR5 % trans of 94%. At mTGR5, the negative-log EC50 (pEC50) was 6.10 and the mTGR5 % trans amounted to 85%.
